Among the test systems are A498 renal; CAKI-1 renal; HCT-15 colon; KM12 colon; NCI-H23 lung; NCI-H522 lung; OVCAR-4 ovarian; PC-3 prostate; SN12C renal; SNB-19 CNS.
Common to all, as to experiment: inhibition of tumour cell growth, NCI panel, 48 h

SMILES strings stand for the structures. Values joined by “and” are separate entries in the source; they are usually repeats but may differ in a detail not shown here. Equal entries are not always repeated.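 Five concentrations, 48 hours, 96-well plates. Here, GI50 denotes the concentration required for 50% inhibition of growth. TGI: concentration producing complete growth inhibition.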

In the case of `COc1ccc(N2CCN(C(=O)c3ccccc3Nc3ccnc(C(F)(F)F)c3)CC2)cc1`, the GI50 with A498 renal was 12.2 µM; in the test on CAKI-1 renal, 48.8 µM; with HCT-15 colon it was above 100 µM; with KM12 colon it was 76.9 µM; in the test with NCI-H23 lung, 17.3 µM; in the test on NCI-H522 lung it was 18.1 µM. The GI50 is 22.4 µM in the test on OVCAR-4 ovarian, 18.7 µM with PC-3 prostate, 64.4 µM in the test on SN12C renal and 78.3 µM in the test with SNB-19 CNS. Also, the TGI in the test with A498 renal, in the test on CAKI-1 renal, with HCT-15 colon, in the test with KM12 colon, in the test with NCI-H23 lung and in the test on NCI-H522 lung was above 100 µM each time. The TGI in the test with OVCAR-4 ovarian, in the test on PC-3 prostate, in the test with SN12C renal and in the test with SNB-19 CNS was above 100 µM throughout.

On to `C[C@]12O[C@H](C[C@]1(O)CO)n1c3ccccc3c3c4c(c5c6ccccc6n2c5c31)CNC4=O`, for which the GI50 is 0.013 µM and 0.0148 µM with A498 renal; 0.00582 µM and < 0.0169 µM with CAKI-1 renal; 0.0605 µM and 0.0598 µM in the test on HCT-15 colon; 0.00535 µM and < 0.01 µM with KM12 colon; 0.0843 µM and 0.189 µM in the test with NCI-H23 lung; 0.0374 µM and 0.135 µM with NCI-H522 lung. Further, the GI50 was 0.891 µM and 1.4 µM with OVCAR-4 ovarian; 0.0846 µM and 0.133 µM in the test with PC-3 prostate; 0.0382 µM and 0.0293 µM in the test with SN12C renal; 0.546 µM and 0.544 µM in the test on SNB-19 CNS. Also, the TGI in the test with A498 renal was 0.114 µM and 0.0943 µM; in the test on HCT-15 colon, 5.91 µM and 9.52 µM; in the test with KM12 colon, 1.4 µM and 0.982 µM; in the test on NCI-H23 lung, 2.32 µM and 2.63 µM; in the test on NCI-H522 lung, 1.5 µM and 2.06 µM; in the test with OVCAR-4 ovarian, 4.99 µM and 7.19 µM. Moreover, the TGI in the test on PC-3 prostate was > 5.89 µM and 3.9 µM; in the test on SN12C renal it was 2.01 µM and 2.35 µM; with SNB-19 CNS, 4.08 µM and 3.22 µM.

For the compound `COc1ccc(C(=O)c2cc(OC)c(OC)c(OC)c2)cc1OC(C)=O`, the GI50 was 1.61 µM in the test with A498 renal; 0.0746 µM in the test on CAKI-1 renal; below 0.0136 µM in the test with HCT-15 colon; below 0.0133 µM in the test with KM12 colon; 0.0662 µM in the test on NCI-H23 lung; 0.017 µM in the test on NCI-H522 lung. In addition, the GI50 with OVCAR-4 ovarian is 0.0822 µM; in the test on PC-3 prostate it was 0.0208 µM; in the test with SN12C renal it was 0.0509 µM; in the test on SNB-19 CNS, 0.0381 µM. The TGI with A498 renal is 6.43 µM; in the test on CAKI-1 renal, above 100 µM; in the test with HCT-15 colon, above 100 µM; in the test on KM12 colon, above 100 µM; in the test with NCI-H23 lung, above 100 µM; in the test on NCI-H522 lung, above 100 µM. Further, the TGI with OVCAR-4 ovarian, in the test with PC-3 prostate, in the test with SN12C renal and in the test on SNB-19 CNS was above 100 µM in each case.

On to `CC1(C)N=C(N)N=C(N)N1c1cccc(C#N)c1`, for which the GI50 is 20.9 µM in the test on A498 renal; 2.45 µM with CAKI-1 renal; 5.65 µM with HCT-15 colon; 7.37 µM in the test on KM12 colon; 5.32 µM in the test with NCI-H23 lung; 4.68 µM in the test on NCI-H522 lung. Further, the GI50 in the test on OVCAR-4 ovarian was above 100 µM; in the test on PC-3 prostate, 2.66 µM; in the test on SN12C renal, 6.1 µM; with SNB-19 CNS it was 49.4 µM. Further, the TGI with A498 renal, with CAKI-1 renal, with HCT-15 colon, in the test on KM12 colon, in the test with NCI-H23 lung and in the test on NCI-H522 lung was above 100 µM in each case. Also, the TGI with OVCAR-4 ovarian, in the test with PC-3 prostate, in the test on SN12C renal and in the test with SNB-19 CNS was above 100 µM in each case.

Regarding `C/C(=C\c1ccc(Cl)cc1)C(C)(C)C(=O)O`, the TGI with A498 renal, in the test with CAKI-1 renal, with HCT-15 colon, in the test on KM12 colon, in the test with NCI-H23 lung and in the test on NCI-H522 lung was above 100 µM in each case. The TGI in the test with OVCAR-4 ovarian, in the test on PC-3 prostate, in the test on SN12C renal and with SNB-19 CNS was above 100 µM in each case.

With `COc1ccc(-c2ccc(/C=C/C(=O)NO)cc2)cc1`, the GI50 in the test on A498 renal was 1.4 µM; with CAKI-1 renal, 1.42 µM; in the test on HCT-15 colon, 0.468 µM; in the test on KM12 colon, 1.11 µM; in the test on NCI-H23 lung, 1.53 µM; with NCI-H522 lung, 0.801 µM. Moreover, the GI50 in the test with OVCAR-4 ovarian was 0.362 µM; in the test with PC-3 prostate it was 1.09 µM; in the test with SN12C renal, 0.864 µM; in the test with SNB-19 CNS, 2.42 µM. Also, the TGI in the test on A498 renal was 3.76 µM; in the test on CAKI-1 renal, 6.11 µM; with HCT-15 colon it was 58.7 µM; with KM12 colon, above 100 µM; in the test with NCI-H23 lung, 6.18 µM; with NCI-H522 lung, 16.4 µM. For the same compound, the TGI with OVCAR-4 ovarian amounted to 4.44 µM; in the test with PC-3 prostate it was 12.3 µM; in the test with SN12C renal, 10.9 µM; in the test on SNB-19 CNS, 11.4 µM.

In the case of `O=C(NCc1cccnc1)/C(=C\c1ccc(Br)cc1)S(=O)(=O)c1ccccc1`, the GI50 in the test with A498 renal was 1.36 µM; with CAKI-1 renal, 1.02 µM; in the test with HCT-15 colon it was 0.536 µM; with KM12 colon, 1.53 µM; in the test on NCI-H23 lung it was 0.935 µM; with NCI-H522 lung, 0.38 µM. For the same compound, the GI50 was 0.416 µM with OVCAR-4 ovarian, 1.06 µM with PC-3 prostate, 0.727 µM with SN12C renal and 1.43 µM in the test on SNB-19 CNS. In addition, the TGI in the test with A498 renal came to 2.71 µM; in the test with CAKI-1 renal, 2.22 µM; in the test on HCT-15 colon, 2.27 µM; in the test with KM12 colon it was 3.47 µM; with NCI-H23 lung, 2.3 µM; in the test on NCI-H522 lung, 1.58 µM. Besides, the TGI in the test on OVCAR-4 ovarian turned out to be 1.8 µM; with PC-3 prostate, 2.61 µM; with SN12C renal, 2.19 µM; in the test on SNB-19 CNS, 2.83 µM.

Regarding `CC1(C)CCC[C@]23C(=O)O[C@](O)(C(=O)C4=C[C@@](C)(/C=C/CCCc5ccc6ccc7cccc8ccc5c6c78)CC[C@@]42O)[C@@H]13`, the GI50 with A498 renal was 0.15 µM; with CAKI-1 renal, 0.183 µM; in the test on HCT-15 colon, 0.148 µM; in the test with KM12 colon, 0.154 µM; with NCI-H23 lung, 0.178 µM; in the test with NCI-H522 lung, 0.2 µM. In addition, the GI50 in the test with OVCAR-4 ovarian is 0.259 µM; with PC-3 prostate, 0.166 µM; in the test on SN12C renal it was 0.164 µM; with SNB-19 CNS, 0.188 µM. Also, the TGI was 0.288 µM with A498 renal; 0.364 µM in the test on CAKI-1 renal; 0.425 µM in the test with HCT-15 colon; 0.34 µM with KM12 colon; 0.376 µM in the test on NCI-H23 lung; 0.475 µM with NCI-H522 lung. Further, the TGI in the test on OVCAR-4 ovarian was determined as 0.616 µM; in the test with PC-3 prostate it was 0.378 µM; in the test with SN12C renal, 0.339 µM; in the test on SNB-19 CNS it was 0.414 µM.

Regarding `CN(C)CCCNc1nn2c(=O)c3ccccc3nc2c2ccccc12`, the GI50 in the test on A498 renal is 9.06 µM; in the test with CAKI-1 renal, 4.49 µM; in the test with HCT-15 colon, 7.05 µM; with KM12 colon it was 11.2 µM; in the test with NCI-H23 lung, 5.89 µM; with NCI-H522 lung it was 2.14 µM. In addition, the GI50 is 10.4 µM in the test with OVCAR-4 ovarian, 11.7 µM in the test with PC-3 prostate, 5.95 µM in the test with SN12C renal and 13.2 µM in the test with SNB-19 CNS. In addition, the TGI with A498 renal came to 21.4 µM; with CAKI-1 renal, 25.3 µM; in the test with HCT-15 colon, 30.2 µM; in the test with KM12 colon it was 27.2 µM; in the test with NCI-H23 lung it was 24.7 µM; in the test with NCI-H522 lung, 24 µM. Moreover, the TGI in the test with OVCAR-4 ovarian is 22.4 µM; in the test with PC-3 prostate, 36.9 µM; with SN12C renal it was above 100 µM; in the test with SNB-19 CNS it was 43.9 µM.

As for `COc1cc(C)c(C(=O)O[C@H]2[C@H](O[C@H]3[C@@H](O)COC(O[C@H]4C[C@H]5[C@@H]6CC=C7C[C@@H](O)CC[C@]7(C)[C@H]6CC[C@]5(C)[C@H]4[C@H](C)C(=O)CCC(C)C)[C@@H]3OC(C)=O)OC[C@@H](O)[C@@H]2O)c(C)c1` (some centres undefined), the GI50 was below 0.01 µM with A498 renal; below 0.01 µM with CAKI-1 renal; 0.0543 µM in the test with HCT-15 colon; 0.153 µM with KM12 colon; 0.384 µM in the test with NCI-H23 lung; below 0.01 µM in the test on NCI-H522 lung. Also, the GI50 in the test with OVCAR-4 ovarian was 0.571 µM; in the test on PC-3 prostate, below 0.01 µM; in the test on SN12C renal it was 10 µM; in the test with SNB-19 CNS, below 0.01 µM. The TGI in the test with A498 renal is below 0.01 µM; in the test with CAKI-1 renal it was 1.18 µM; in the test on HCT-15 colon, 1.94 µM; with KM12 colon, 18.4 µM; in the test on NCI-H23 lung, 14.2 µM; with NCI-H522 lung, 0.334 µM. Also, the TGI in the test with OVCAR-4 ovarian was 69.9 µM; with PC-3 prostate, 2.4 µM; with SN12C renal, 25.6 µM; in the test on SNB-19 CNS, 4.93 µM.

Consider `C=C1CCC2C3(C)COC(c4ccc(NC(C)=O)cc4)OC3CCC2(C)C1C/C=C1/C(=O)OCC1O` (centres undefined), for which the GI50 is above 100 µM in the test with A498 renal; 4.71 µM in the test on CAKI-1 renal; 9.58 µM in the test on HCT-15 colon; 5.07 µM with KM12 colon; 5.13 µM in the test on NCI-H23 lung; 4.53 µM in the test with NCI-H522 lung. Besides, the GI50 in the test with OVCAR-4 ovarian is 6.81 µM; in the test with PC-3 prostate it was 3.39 µM; in the test on SN12C renal, above 100 µM; in the test on SNB-19 CNS, above 100 µM. Moreover, the TGI with A498 renal, with CAKI-1 renal, with HCT-15 colon, in the test with KM12 colon, with NCI-H23 lung and with NCI-H522 lung was above 100 µM in each case. The TGI in the test with OVCAR-4 ovarian, in the test with PC-3 prostate, with SN12C renal and with SNB-19 CNS was above 100 µM each time.

The record behind these values is PubChem BioAssay (NCI).
